Measurements published in paper PMC11984924, “Dipeptidic Phosphonates: Potent Inhibitors of Pseudomonas aeruginosa Elastase B Showing Efficacy in a Murine Keratitis Model” (Advanced Science, 2025).

Legend:
[1] = Tolerability study in male CD1 mice, repeated TID intravenous dosing; format: in vivo; conditions: mouse, 300 and 600 mg/kg/day, 3 days
Method: Table S8: Percent (%) inhibition of the metabolic activity of three human cell lines HepG2 (hepatocellular carcinoma cells), HEK293 (human embryonic kidney 293 cells) and A549 (lung carcinoma epithelial cells). Results are means and SD of at least two independent ex periments.
3.10 Evaluation of Zebrafish embryo toxicity
The experiment was performed according to a procedure described in the literature with minor modifications using zebrafish embryos of the AB wild -type line at 1 day post fertilization (dpf). A detailed protocol has been given in our recent publication.[16]
Starting exposure ar 2 dpf. Ten larvae were tested for each condition. Dpf: days post fertilization.
3.11 Tolerability study in male CD1 mice
This in vivo experiment was carried out at the CRO Selvita (Zagreb, Croatia). The study was performed in an AAALAC I- approved Facility. The standard study plan relating to this study was reviewed by the Ethics Committee (CARE- Zagreb) as required by International Laws/Regulations and Croatian Low on Animal Welfare (“The Animal Protection Act”, Official Gazette, NN 135/06 and NN 37/13) and Animal Welfare Officer. Animals were kept in solid […]
The observations and examinations that were made, comprise clinical signs, body weight, food consumption, macroscopy at termination and organ weights. Mortality was recorded twice a day, i.e. in the morning and at the end of the working day.

[2] = In vivo pharmacokinetic study in CD-1 mice, 30 mg/kg SC; conditions: male, mouse, 30 mg/kg subcutaneous
Method: page 60: Figure S7: Basolateral concentration of 9 (A) and 30 (B) in the Calu-3 permeability model. […] For pharmacokinetic experiments, outbred male CD-1 mice (Charles River, Netherlands), 4 weeks old, were used. The animal studies were conducted in accordance with the recommendations of the European Community (Directive 2010/63/EU, 1st January 2013). All animal procedures were performed in strict accordance with the German regulations of the Society for Laboratory Animal Science (GV-SOLAS) and the European Health Law of the Federation of Laboratory Animal Science Associations (FELASA). Animals were excluded from further analysis if sacrifice was necessary according to the human endpoints established by the ethical board. All experiments were approved by the ethical board of the […] Verbraucherschutz und […], Oldenburg, Germany. 30 was subjected to a focused PK study and was administered 30 mg/kg SC. At time points t= […] euthanatized and blood was collected from the heart. For all PK studies, whole blood was collected into Eppendorf tubes coated with 0.5 M EDTA and immediately spun down at 13,000 rpm for 10 min at 4°C. The plasma was transferred into a new Eppendorf tube and then stored at -80°C until analysis. Then, a broncheoalveolar lavage was conducted using isotonic sodium chloride solution for all PK studies. For all PK studies, lung, kidney and liver were aseptically removed and homogenized using a Polytron (Kinematica) in isotonic sodium chloride solution. Organ samples were aliquoted into Eppendorf tubes and stored at -80°C until analysis. Moreover, spontaneous urine was also collected. […] system and coupled to an AB Sciex QTrap6500+ mass spectrometer as described previously.[10] Mass spectrometric conditions can be found in Table S5. First, a calibration curve was prepared by spiking different concentrations of 30 into the respective matrix (mouse […] (1 picture or pasted object on this page, not shown here) page 61: plasma (pooled, from CD-1 mice) for plasma samples, isotonic sodium chloride solution for BALF samples, lung tissue for lung samples, kidney tissue for kidney samples, liver tissue for liver samples and urine for urine samples). Caffeine was used as an internal standard. In addition, quality control samples (QCs) were prepared for 30 with the respective matrix. The following extraction procedure was used: 7.5 μl of a plasma sample (calibration samples, QCs […] internal standard for 5 min at 2000 rpm on an Eppendorf MixMate® vortex mixer. 10 μl of a urine sample (calibration samples, QCs or PK samples) was extracted with 40 μl of methanol containing 12.5 ng/ml of caffeine as internal standard for 5 min at 2000 rpm on an Eppendorf MixMate® vortex mixer. Then samples (plasma and urine) were spun down at 13.000 rpm for 5 min. Supernatants were transferred to standard HPLC-glass vials. 50 μl of a BALF / lung tissue / kidney tissue or liver tissue sample (calibration samples, QCs or PK samples) were extracted with 50 μl of methanol and 1 μl caffeine (concentration 1 μg/ml in methanol) for 5 min at 800 rpm on an Eppendorf MixMate® vortex mixer. Then samples (BALF, liver, kidney, lung) were spun down at 4,000 rpm for 40 min at 4°C. Supernatants were transferred to 96well V-bottom plates (Greiner). Urea was used to enable calculation of epithelial lining fluid (ELF) concentrations. Peak areas of each sample and of the corresponding internal standard were analyzed using MultiQuant 3.0 software (AB Sciex). Peak areas of the respective sample were normalized to the internal standard peak area. Peaks of PK samples were quantified using the calibration curve. The accuracy of the calibration curve was determined using QCs independently prepared on different days. PK parameters were determined using a non- compartmental analysis with PKSolver.[11] ELF concentrations were calculated using the following formula (2).[12] (1) V_ELF=V_BALF × (Urea_BALF)/(Urea_Plasma ) (2) c_ELF=c_BALF× V_BALF/V_ELF S60

| SMILES | mortality, body weight, clinical signs [1] | Kp ([2]; CD-1, epithelial lining fluid (ELF) / plasma, sc, read-out: ELF/plasma ratio) | AUC(0-t) ([2]; CD-1, sc, plasma) [µg·h/mL] | CL/F ([2]; CD-1, sc, plasma) [mL/min/kg] | Cmax ([2]; CD-1, sc, plasma) [ng/mL] | MRT ([2]; CD-1, sc, plasma) [h] | Tmax ([2]; CD-1, sc, plasma) [h] | half-life ([2]; CD-1, sc, plasma) [h] |
| --- | --- | --- | --- | --- | --- | --- | --- | --- |
| CC(=O)c1ccc(NC(=O)[C@@H](NC(=O)[C@@H](CC(C)C)P(=O)(O)O)C(C)C)cc1 [(R)‐30] | no treatment–related mortality, nor effects on body weight or clinical signs | – | – | – | – | – | – | – |
| CC(=O)c1ccc(NC(=O)[C@@H](NC(=O)C(CC(C)C)P(=O)(O)O)C(C)C)cc1 (some centres unmarked) [compound 30] | – | ~0.38 | 249 ± 15.5 | 1.3 ± 0.3 | 32200 ± 8500 | 24.6 ± 16 | 0.75 ± 0.4 | 18.5 ± 11 |
